The values that follow come from ChEMBL document CHEMBL1143792, “Natural dibenzoxazepinones from leaves of Carex distachya: Structural elucidation and radical scavenging activity” (Bioorg Med Chem Lett, 2007).

Assay [1] can be described thus: Nitric oxide radical scavenging activity at 0.1 mg/ml. The format is functional.
Assay [2] can be described thus: DPPH radical scavenging activity at 0.1 mg/ml. The format is functional.

In turn, `O=C1O[C@H]([C@@H](O)CO)C(O)=C1O` showed an Activity in assay [1] of 66%. With `COc1cc2c(c(OC)c1C)C(=O)Nc1ccc(O)c(C)c1O2`, the Activity was 63% in assay [1] and 25% in assay [2]. In the case of `COc1cc2c(c(O)c1C)C(=O)Nc1ccc(O)cc1O2`, the Activity in assay [1] turned out to be 59%.
